≈ marks a conversion by molar mass, not a printed value.

Format in all cases: functional
The subject of test [1] is Candida albicans. In words: Antimicrobial activity against Candida albicans by EUCAST broth microdilution method.
Test [2] concerns Candida albicans. In words: Antimicrobial activity against Candida albicans by CLSI M27-A2 broth microdilution method. For orientation: Dilution methods test growth across graded concentrations, often in twofold steps.
Test [3] has as its system Pichia kudriavzevii. In words: Antimicrobial activity against Candida krusei ATCC 6258 by EUCAST broth microdilution method.
Test [4] concerns Pichia kudriavzevii. Nature of the test: Antimicrobial activity against Candida krusei ATCC 6258 by CLSI M27-A2 broth microdilution method.
The subject of test [5] is Nakaseomyces glabratus. In words: Antimicrobial activity against Candida glabrata by CLSI M27-A2 broth microdilution method.
For test [6], the system named is Candida parapsilosis. In words: Antimicrobial activity against Candida parapsilosis ATCC 22019 by CLSI M27-A2 broth microdilution method. Particulars: Lodderomyces parapsilosis.
In test [7] the test system is Nakaseomyces glabratus. In words: Antimicrobial activity against Candida glabrata by EUCAST broth microdilution method.
Test [8] concerns Candida parapsilosis. Nature of the test: Antimicrobial activity against Candida parapsilosis ATCC 22019 by EUCAST broth microdilution method. To be noted: Lodderomyces parapsilosis.

By MIC50 is commonly meant an inhibitory concentration at the 50% level, which refers to growth in some studies and to a panel of isolates in others. Higher therefore signals lower susceptibility. For `Clc1ccc(C(Cn2ccnc2)OCc2ccc(Sc3ccccc3)cc2)c(Cl)c1` (configuration not stated) [FENTICONAZOLE], the MIC50 in the test on Candida albicans [1] came to 0.03 µg/mL (≈ 0.0659 µM); against Candida albicans [2], 0.03 µg/mL (≈ 0.0659 µM); in the test on Pichia kudriavzevii [3], 0.06 µg/mL (≈ 0.132 µM); against Pichia kudriavzevii [4], 0.06 µg/mL (≈ 0.132 µM); against Nakaseomyces glabratus [5], 0.03 µg/mL (≈ 0.0659 µM); in the test with Candida parapsilosis [6], 0.03 µg/mL (≈ 0.0659 µM). Also, the MIC50 in the test with Nakaseomyces glabratus [7] and in the test with Candida parapsilosis [8] was 0.03 µg/mL (≈ 0.0659 µM) in each case.
Consider `OC(Cn1cncn1)(Cn1cncn1)c1ccc(F)cc1F` [FLUCONAZOLE], for which the MIC50 was 0.12 µg/mL (≈ 0.392 µM) in the test with Candida albicans [1]; 0.12 µg/mL (≈ 0.392 µM) against Candida albicans [2]; 32 µg/mL (≈ 104 µM) against Pichia kudriavzevii [3]; 16 µg/mL (≈ 52.2 µM) with Pichia kudriavzevii [4]; 2 µg/mL (≈ 6.53 µM) against Nakaseomyces glabratus [5]; 2 µg/mL (≈ 6.53 µM) against Candida parapsilosis [6]. In addition, the results for the MIC50 in the test on Nakaseomyces glabratus [7] and in the test on Candida parapsilosis [8] were 2 µg/mL (≈ 6.53 µM) and 0.5 µg/mL (≈ 1.63 µM), respectively.
Take `CCC(C)n1ncn(-c2ccc(N3CCN(c4ccc(OCC5COC(Cn6cncn6)(c6ccc(Cl)cc6Cl)O5)cc4)CC3)cc2)c1=O` (configuration not stated) [ITRACONAZOLE]: the MIC50 against Candida albicans [1] turned out to be 0.03 µg/mL (≈ 0.0425 µM); with Candida albicans [2], 0.03 µg/mL (≈ 0.0425 µM); in the test on Pichia kudriavzevii [3], 0.03 µg/mL (≈ 0.0425 µM); in the test on Pichia kudriavzevii [4] it was 0.12 µg/mL (≈ 0.17 µM); in the test on Nakaseomyces glabratus [5] it was 0.03 µg/mL (≈ 0.0425 µM); with Candida parapsilosis [6] it was 0.06 µg/mL (≈ 0.085 µM). Also, the values for the MIC50 in the test on Nakaseomyces glabratus [7] and against Candida parapsilosis [8] were 0.03 µg/mL (≈ 0.0425 µM) and 0.06 µg/mL (≈ 0.085 µM), respectively.
Regarding `CC(=O)N1CCN(c2ccc(OCC3COC(Cn4ccnc4)(c4ccc(Cl)cc4Cl)O3)cc2)CC1` (configuration not stated) [KETOCONAZOLE], the MIC50 is 0.12 µg/mL (≈ 0.226 µM) against Candida albicans [1]; 0.12 µg/mL (≈ 0.226 µM) in the test on Candida albicans [2]; 0.12 µg/mL (≈ 0.226 µM) against Pichia kudriavzevii [3]; 0.25 µg/mL (≈ 0.47 µM) against Pichia kudriavzevii [4]; 0.5 µg/mL (≈ 0.941 µM) in the test on Nakaseomyces glabratus [5]; 0.12 µg/mL (≈ 0.226 µM) against Candida parapsilosis [6]. In addition, the MIC50 against Nakaseomyces glabratus [7] was determined as 2 µg/mL (≈ 3.76 µM); in the test with Candida parapsilosis [8], 0.12 µg/mL (≈ 0.226 µM).

These data come from ChEMBL document CHEMBL1649162, “Fenticonazole activity measured by the methods of the European Committee on Antimicrobial Susceptibility Testing and CLSI against 260 Candida vulvovaginitis isolates from two European regions and annotations on the prevalent genotypes” (2009).
